According to PubChem BioAssay AID504461 (NMMLSC, 2011):
The source made the active and inactive calls.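 How the source made its calls: active means compounds whose fitted half-effect concentration on CIT2 GFP level is 33 micromolar or lower; inactive means the rest.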

Tested on: not listed separately
Experiment: yeast TOR pathway CIT2-GFP reporter analogs – flow cytometry, KU set 2, dose response, SAR follow-up (AID 504461)
Conditions: S. cerevisiae CIT2-GFP strain, flow cytometry GFP, 3 h; at 100 µM (top of the series)

Question: For `CNc1nc(NC2CCCCC2)c([N+](=O)[O-])c(N2CCOCC2)n1`, which GFP fluorescence (kMESF) is on record?
Answer: Its GFP fluorescence (kMESF) is 3.39 kMESF (inactive).

Question: With `CNc1nc(N)c([N+](=O)[O-])c(Nc2cccc(OC)c2)n1` as the molecule, how does the GFP fluorescence (kMESF) read?
Answer: The GFP fluorescence (kMESF) was 5.3 kMESF (inactive).

Question: For `CNc1nc(N)c([N+](=O)[O-])c(Nc2ccccc2F)n1`, which GFP fluorescence (kMESF) is on record?
Answer: The GFP fluorescence (kMESF) was 4.24 kMESF (inactive).

Question: For `CNc1nc(N)c([N+](=O)[O-])c(Nc2ccccc2Br)n1`, which GFP fluorescence (kMESF) is on record?
Answer: Its GFP fluorescence (kMESF) is 3.6 kMESF (inactive).

Question: With `CCNc1nc(NC2CCCCC2)c([N+](=O)[O-])c(N2CCOCC2)n1` as the molecule, how does the GFP fluorescence (kMESF) read?
Answer: Its GFP fluorescence (kMESF) is 3.39 kMESF (inactive).

Question: For `CNc1nc(N)c([N+](=O)[O-])c(Nc2cccc(Br)c2)n1`, which GFP fluorescence (kMESF) is on record?
Answer: The GFP fluorescence (kMESF) was 5.3 kMESF (inactive).

Question: For `CNc1nc(NC)c([N+](=O)[O-])c(Nc2cccc(Cl)c2)n1`, which GFP fluorescence (kMESF) is on record?
Answer: The GFP fluorescence (kMESF) was 3.32 kMESF (inactive).

Question: Which GFP fluorescence (kMESF) does the source give for `CNc1nc(N)c([N+](=O)[O-])c(Nc2cccc(Oc3ccccc3)c2)n1` here?
Answer: The GFP fluorescence (kMESF) was 3.53 kMESF (inactive).

Same assay, conditions: S. cerevisiae CIT2-GFP strain, flow cytometry GFP, 3 h; at 300 µM (top of the series)

Question: For `CNc1nc(N)cc(Nc2cccc(Cl)c2)n1`, which GFP fluorescence (kMESF) is on record?
Answer: Its GFP fluorescence (kMESF) is 4.78 kMESF (inactive).

Question: Which GFP fluorescence (kMESF) does the source give for `CNc1nc(N)cc(Nc2ccccc2F)n1` here?
Answer: Its GFP fluorescence (kMESF) is 5.53 kMESF (inactive).

Question: For `CNc1nc(N)cc(Oc2cccc(Cl)c2)n1`, which GFP fluorescence (kMESF) is on record?
Answer: Its GFP fluorescence (kMESF) is 3.55 kMESF (inactive).

Question: Which GFP fluorescence (kMESF) does the source give for `O=[N+]([O-])c1c(NC2CCCCC2)nc(NCc2ccccc2)nc1N1CCOCC1` here?
Answer: Its GFP fluorescence (kMESF) is 4.5 kMESF (inactive).

Question: Which GFP fluorescence (kMESF) does the source give for `Cc1cc(Nc2cc(Nc3ccccc3)nc(NCc3ccccc3)n2)n[nH]1` here?
Answer: The GFP fluorescence (kMESF) was 4.57 kMESF (inactive).

Question: For `COc1ccccc1-c1cc(Nc2cc(C)[nH]n2)nc(NCc2ccccc2)n1`, which GFP fluorescence (kMESF) is on record?
Answer: Its GFP fluorescence (kMESF) is 4.5 kMESF (inactive).

Question: With `CCOC(=O)c1c(N)nc(NC)nc1Nc1cccc(F)c1` as the molecule, how does the GFP fluorescence (kMESF) read?
Answer: The GFP fluorescence (kMESF) was 5.12 kMESF (inactive).

Question: For `COC(=O)c1cccc(-c2cc(Nc3cc(C)[nH]n3)nc(NCc3ccccc3)n2)c1`, which GFP fluorescence (kMESF) is on record?
Answer: Its GFP fluorescence (kMESF) is 4.85 kMESF (inactive).

Question: For `COc1cccc(-c2cc(Nc3cc(C)[nH]n3)nc(NCc3ccccc3)n2)c1`, which GFP fluorescence (kMESF) is on record?
Answer: Its GFP fluorescence (kMESF) is 4.64 kMESF (inactive).

Question: For `Cc1cc(Nc2cc(-c3ccccc3)nc(NCc3ccccc3)n2)n[nH]1`, which GFP fluorescence (kMESF) is on record?
Answer: The GFP fluorescence (kMESF) was 4.23 kMESF (inactive).

Tested on: S. cerevisiae CIT2-GFP strain, flow cytometry GFP, 3 h
Experiment: as above
Conditions: not given

Question: With `CNc1nc(N)c(C(=O)c2ccc(C)c(C)c2)c(Nc2cccc(Cl)c2)n1` as the molecule, how does the EC50 read?
Answer: The EC50 was 129 µM (inactive).

Question: For `CCNc1nc(N)c([N+](=O)[O-])c(Nc2cccc(Cl)c2)n1`, which EC50 is on record?
Answer: The EC50 was 73.5 µM (inactive).
